# Results as given in patent publication US11998549B2, “Methods of treating a vascular leakage-associated disease or disorder” (UNITY HEALTH TORONTO, priority 2019, dated 2024).
# Legend:
# [1] = system: human pulmonary microvascular endothelial cells (HPMECs); experiment: FITC dextran permeability assay in HPMEC monolayer; format: cell-based; settings: FITC-conjugated dextran
# From the text: Cultured endothelial cells are used to model the microvascular endothelium, because of the feasibility of performing complex molecular or pharmacological experiments to study cellular signalling pathways related to barrier function and integrity. In addition, the lung is the organ most often affected by sepsis induced-MODS. To determine the functional significance of G9a inhibition in human cells, solute permeability and electrical resistance across a confluent human pulmonary microvascular endothelial cell (HPMEC) monolayer was assessed. For both experiments HPMECs were seeded on 0.4 μm-pore polyester transwells (Costar) coated with Attachment Factor (Invitrogen), grown to confluency, and then […] with either UNC0462 or vehicle control.
# FITC fluorescence was be measured at different time intervals in samples taken from the bottom compartment as a measure of paracellular dextran leak.
# [2] = system: cellular junction protein transcript levels; experiment: Quantitative RT-PCR of cellular junction proteins in zebrafish sepsis model; format: in vivo; settings: 3 dpf larvae, LPS 27 μg/ml (Salmonella) + 1 μM UNC0642, 24 h
# From the text: (§1) Quantitative reverse transcription polymerase chain reaction (RT-PCR) was used to assess relative expression of cytokines (an average of 3 trials, each trial with a pool of 20 larvae/treatment) and cellular junction proteins (an average of 3 trials, each trial with a pool of 20 larvae/treatment), using elongation factor 1 a (EF1a) as the housekeeping gene control. […] UNC0642 reverses LPS induced reduction in the transcript levels of cellular junction proteins, namely occludin a, occludin b and ZO-1. UNC0642 also upregulates cellular junction protein transcript levels of occludin b, claudin 5a, claudin 5b and claudin 2, potentially improving vascular stability.
# (§2) RNA extraction and cDNA synthesis. Wildtype zebrafish larvae (3 dpf) were exposed to Vehicle, LPS (27 μg/ml; LPS from Salmonella) or LPS+1 μM UNC0642 by static immersion for 24 h. Total RNA was extracted from these larvae (pool of 20 larvae/treatment) using the RNeasy extraction kit (Qiagen™, Mississauga, Ontario, Canada) and treated with DNase. The concentration of total RNA was determined spectrophotometrically at 260/280 nm using a NanoDrop™ spectrophotometer. […]
# (§3) PCR conditions. […] The primers are not listed, since suitable primers will be readily apparent to the skilled person.
# [3] = system: human umbilical vein endothelial cells (HUVECs); experiment: FITC dextran leakage assay in HUVEC monolayer; format: cell-based; settings: HUVEC on transwell, LPS 1 μg/ml + UNC0642 2.5 nM
# Procedure: To determine the functional significance of G9a inhibition in human cells, solute permeability and electrical resistance across a confluent HUVEC monolayer was assessed. For both experiments, HUVEC were seeded at 1×10^6 cells/ml on Matrigel™ coated 3-μm pore size transwell inserts in 24-well plates from BD Discovery Labware™ (catalog number 354575) and grown to confluency. The cells were then treated with either the vehicle, LPS (1 μg/ml) or LPS (1 μg/ml)+UNC0642 (2.5 nM).
# Assessment of Paracellular Permeability: Dextran sulfate-FITC (3 kD, Invitrogen™ Molecular Probes catalog number D-3306) was added to the lower chamber to a final concentration of 10 μg/ml. Simultaneously, the different treatment conditions mentioned above were added to the lower chamber. FITC fluorescence was measured at different time intervals (0 h, 1.5 h, 2.5 h, 24 h) in samples taken from the top chamber as a measure of paracellular dextran leak. […] (FIG. 11, Panel A)
# [4] = system: H3K9me2 in venous endothelial cell nuclei; experiment: H3K9me2 immunofluorescence in zebrafish larvae; format: in vivo; settings: LPS 100 μg/ml + 1 μM UNC0642, 5 h
# Procedure: 3 dpf Tg eGFP) larvae were exposed to Vehicle, LPS (100 μg/ml) or LPS+1 μM UNC0642 by static immersion for 5 h at 28.5° C. Embryos were fixed overnight at 4° C. in 2% PFA in PBST (PBS+0.1% Tween 20). Embryos were then washed 4×5 min in PBST at room temperature (RT) and permeabilized for 30 min at RT in PBST+0.5% TritonX-100. Embryos were then blocked in PBST+0.1% TritonX-100+10% NGS+1% BSA for 2 h at RT. Embryos were incubated with primary antibodies (Mouse monoclonal (mAbcam 1220) to Histone H3 (di-methyl K9) in blocking solution (1:200) overnight at 4° C. Embryos were then washed 6×20 min in PBST at RT and then incubated with the secondary antibody (Goat anti-mouse IgG Alexa fluor 647; 1:1000) in blocking solution for 2 h at RT. Embryos were finally washed 3×10 min in PBST at RT. Images were taken with a Zeiss Confocal Microscope.
# [5] = system: CLP-induced mortality; experiment: Mouse cecal ligation and puncture (CLP) model of sepsis, survival; format: in vivo; settings: intravenous infusion of 1 mg/kg
# Procedure: The CLP model is a well established clinically relevant model for human sepsis (Smeding et al., 2012; Amatullah et al., 2016). Male 8-12 week old C57/B16 mice (Jackson lab) were randomized to CLP or sham surgeries. In anesthetised mice, the cecum was exteriorized, ligated, and perforated. Control animals were exposed to sham surgery, in which the cecum was manipulated, but not ligated or punctured. After surgery, animals received daily fluid resuscitation (subcutaneous (s.c.) 50 ml/kg saline), antibiotic (intraperitoneal (i.p.) imipenem 25 mg/kg) and pain management (s.c. buprenorphine 0.2 mg/kg). Experiments were divided into 2 groups: (1) to assess 7-day survival, and (2) to identify a mechanism of action of a G9a inhibitor in vivo. All experimental mice were randomized and investigators were blinded to group assignment.
# [6] = system: IL-1, IL-6, TNFα and IL811 transcript levels; experiment: Quantitative RT-PCR of pro-inflammatory cytokines in zebrafish sepsis model; format: in vivo; settings: 3 dpf larvae, LPS 27 μg/ml (Salmonella) + 1 μM UNC0642, 24 h
# From the text: as §1, §2, §3
compound,measurement,setting,value
"COc1cc2c(NC3CCN(C(C)C)CC3)nc(N3CCC(F)(F)CC3)nc2cc1OCCCN1CCCC1 [UNC0642, 2-(4,4-Difluoropiperidin-1-yl)-6-methoxy-N-[1-(propan-2-yl)piperidin-4-yl]-7-(3-(pyrrolidin-1-yl)propoxy]quinazolin-4-amine]",LPS-induced endothelial barrier dysfunction (increased dextran leakage),[1],significantly mitigate
same,"LPS induced reduction in transcript levels of occludin a, occludin b and ZO-1",[2],reverses
same,"Transcript levels of occludin b, claudin 5a, claudin 5b and claudin 2",[2],upregulates
same,LPS induced vessel permeability (FITC dextran leakage),[3],protects against LPS induced vessel permeability
same,LPS induced increased H3K9me in venous endothelial cell nuclei,[4],rescues LPS induced increased H3K9me
same,Reduction of CLP-induced absolute mortality,[5],~50%
same,"LPS induced increases in transcript levels of pro-inflammatory cytokines IL-1, IL-6, TNFα and IL811",[6],significantly mitigates
